Experimental data reported in patent publication US9388139B2, “Derivatives of celeboxib, use thereof and preparation thereof” (German University, priority 2011, dated 2016).
Like-named read-outs stand apart in the source and are kept apart here.

Experiments:
[1] = target: recombinant human PDE5 (Homo sapiens (Human), UniProt O76074); assay: PDE5 inhibition, IMAP fluorescence polarization assay; format: biochemical; conditions: read-out: IC50 μM against PDE5
Procedure: (§1) Compounds according to the present disclosure were tested for their in vitro ability to inhibit recombinant human PDE5, COX1 and COX2 enzymes at screening doses of 50, 100 and 100 μM respectively.
PDE activity was measured using the IMAP fluorescence polarization assay (Molecular Devices) in which binding of hydrolyzed cyclic nucleotide substrate to immobilized metal coordination complexes increases fluorescence polarization (FP). Tetramethylrhodamine (TAMRA)-cGMP and fluorescein-cAMP were used as substrates, each at final concentration of 50 nmol/L. The PDE assay was done according to the manufacturer's specifications using either whole cell lysates or recombinant enzymes.

[2] = target: COX1 (Ovis aries (Sheep), UniProt P05979); assay: COX-1 activity, colorimetric assay; format: biochemical, ovine; conditions: screening dose 100 μM; read-out: IC50 μM against COX1
Procedure: as §1
(§2) COX-1 and COX-2 activities were measured using purified ovine COX-1 and COX-2 with colorimetric assay kits obtained from Cayman Chemical Co. (Ann Arbor, Mich.). The activities of COX-1 and COX-2 were measured after the addition of arachidonic acid and incubation at 25° C. for 5 min by absorbance at 590 nm as specified by the manufacturer.

[3] = target: COX2 (Ovis aries (Sheep), UniProt P79208); assay: COX-2 activity, colorimetric assay; format: biochemical, ovine; conditions: screening dose 100 μM; read-out: IC50 μM against COX2
Procedure: as §1, §2

[4] = test system: human breast MDA-MB-231 tumor cell line; assay: Tumor cell growth assay (Cell Titer Glo); format: cell-based; conditions: read-out: IC50 μM against MDA-MB-231
[5] = test system: human colorectal HT-29 tumor cell line; assay: Tumor cell growth assay (Cell Titer Glo); format: cell-based; conditions: read-out: IC50 μM against HT-29
[6] = recombinant human PDE5, IC50 determined if inhibition >50% at 50 μM screening dose

COX2, sequence (P79208 17-603): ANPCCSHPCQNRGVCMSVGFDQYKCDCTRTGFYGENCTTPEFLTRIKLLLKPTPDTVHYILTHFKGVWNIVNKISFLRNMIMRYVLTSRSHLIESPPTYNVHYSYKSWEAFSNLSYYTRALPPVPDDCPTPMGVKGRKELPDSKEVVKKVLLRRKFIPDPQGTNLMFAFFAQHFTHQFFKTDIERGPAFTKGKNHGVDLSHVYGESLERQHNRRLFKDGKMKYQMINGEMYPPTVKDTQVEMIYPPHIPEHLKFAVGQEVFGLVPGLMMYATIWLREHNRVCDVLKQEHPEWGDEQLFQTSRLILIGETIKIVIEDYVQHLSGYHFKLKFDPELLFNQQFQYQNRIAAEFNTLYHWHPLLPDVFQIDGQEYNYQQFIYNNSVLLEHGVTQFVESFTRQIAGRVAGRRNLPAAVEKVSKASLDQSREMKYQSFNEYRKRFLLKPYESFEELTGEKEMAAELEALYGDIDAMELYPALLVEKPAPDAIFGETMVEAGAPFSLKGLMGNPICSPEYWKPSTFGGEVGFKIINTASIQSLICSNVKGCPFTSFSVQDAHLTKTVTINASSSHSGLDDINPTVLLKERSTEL
COX1, sequence (P05979 25-600): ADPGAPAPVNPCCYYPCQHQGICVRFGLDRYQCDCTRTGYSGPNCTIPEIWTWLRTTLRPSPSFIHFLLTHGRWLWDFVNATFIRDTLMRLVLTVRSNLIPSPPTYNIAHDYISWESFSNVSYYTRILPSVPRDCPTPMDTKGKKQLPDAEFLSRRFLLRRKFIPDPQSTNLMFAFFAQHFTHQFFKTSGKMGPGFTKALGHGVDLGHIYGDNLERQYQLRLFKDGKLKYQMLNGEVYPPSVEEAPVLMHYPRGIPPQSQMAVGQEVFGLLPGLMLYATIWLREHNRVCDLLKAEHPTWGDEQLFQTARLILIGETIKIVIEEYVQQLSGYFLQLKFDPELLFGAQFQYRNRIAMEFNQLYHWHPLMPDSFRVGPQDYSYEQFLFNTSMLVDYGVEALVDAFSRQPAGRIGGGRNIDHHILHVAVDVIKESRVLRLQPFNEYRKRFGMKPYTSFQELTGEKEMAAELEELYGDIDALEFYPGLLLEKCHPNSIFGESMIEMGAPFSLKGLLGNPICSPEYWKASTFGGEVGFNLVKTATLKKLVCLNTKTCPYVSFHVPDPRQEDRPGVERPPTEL

Structure (SMILES) | IC50 [1, 6] | IC50 [2] | IC50 [3] | IC50 ([4]; MDA-MB-231, 72 hours) | IC50 ([5]; HT-29, 72 hours) | IC50 ([4]; 72 hours) | IC50 ([5]; 72 hours) | IC50 [1]
CC(C)(C)C1=NN(c2ccc(C(=O)O)cc2)C(c2ccc(Cl)c(Cl)c2)C1 (stereo not shown) [Compound 13, 4-(3-(tert-Butyl)-5-(3,4-dichlorophenyl)-4,5-dihydro-1H-pyrazol-1-yl)benzoic acid] | 5.5 µM | > 100 µM | > 100 µM | > 50 µM | 25.7 µM |  |  | 
CC(C)(C)C1=NN(c2ccc(C(=O)O)cc2)C(c2ccc([N+](=O)[O-])cc2)C1 (stereo not shown) [Compound 2, 4-(3-tert-Butyl-5-(4-nitrophenyl)-4,5-dihydro-1H-pyrazol-1-yl)benzoic acid] | 5.7 µM | > 100 µM | > 100 µM | > 50 µM | > 50 µM |  |  | 
COc1ccc(C2CC(c3cccc(OC)c3)=NN2c2ccc(C(=O)O)cc2)cc1 (stereo not shown) [Compound 9, 4-(3-(3-Methoxyphenyl)-5-(4-methoxyphenyl)-4,5-dihydro-1H-pyrazol-1-yl)benzoic acid] | 1.8 µM | > 100 µM | > 100 µM | 45.6 µM | 25.9 µM |  |  | 
CC(C)(C)C1=NN(c2ccc(S(=O)(=O)O)cc2)C(c2ccc(Cl)cc2)C1 (stereo not shown) [Compound 26, 4-(3-tert-Butyl-5-(4-chlorophenyl)-4,5-dihydro-1H-pyrazol-1-yl)benzenesulfonic acid] | 7.2 µM | > 100 µM | > 100 µM | > 50 µM | > 50 µM |  |  | 
COc1ccc(C2CC(c3ccc(OC)c(OC)c3)=NN2c2ccc(C(=O)O)cc2)cc1 (stereo not shown) [Compound 10, 4-(3-(3,4-Dimethoxyphenyl)-5-(4-methoxyphenyl)-4,5-dihydro-1H-pyrazol-1-yl)benzoic acid] | 6.9 µM | > 100 µM | > 100 µM | > 50 µM | 42.5 µM |  |  | 
CC(C)(C)C1=NN(c2ccc(C(=O)O)cc2)C(c2ccc(Cl)cc2)C1 (stereo not shown) [Compound 21, 4-(3-tert-Butyl-5-(4-chlorophenyl)-4,5-dihydro-1H-pyrazol-1-yl)benzoic acid] | 8.7 µM | > 100 µM | > 100 µM | > 50 µM | > 50 µM |  |  | 
CC(C)(C)C1=NN(c2ccc(C(=O)O)cc2)C(c2ccc(Br)cc2)C1 (stereo not shown) [Compound 24, 4-(5-(4-Bromophenyl)-3-tert-butyl-4,5-dihydro-1H-pyrazol-1-yl)benzoic acid] | 7.7 µM | > 100 µM | > 100 µM | > 50 µM | > 50 µM |  |  | 
Cc1ccc(C2CC(C(C)(C)C)=NN2c2ccc(C(=O)O)cc2)cc1 (stereo not shown) [Compound 23, 4-(3-tert-Butyl-5-p-tolyl-4,5-dihydro-1H-pyrazol-1-yl)benzoic acid] | 8.4 µM | > 100 µM | > 100 µM | > 50 µM | > 50 µM |  |  | 
COc1ccc(C2CC(c3ccc(F)cc3)=NN2c2ccc(C(=O)O)cc2)cc1 (stereo not shown) [Compound 27, 4-(3-(4-Fluorophenyl)-5-(4-methoxyphenyl)-4,5-dihydropyrazol-1-yl)benzoic acid] | 3.1 µM | > 100 µM | > 100 µM | > 50 µM | > 50 µM |  |  | 
CC(C)(C)C1=NN(c2ccc(C(=O)O)cc2)C(c2cccc(Br)c2)C1 (stereo not shown) [Compound 16, 4-(5-(3-Bromophenyl)-3-(tert-butyl)-4,5-dihydro-1H-pyrazol-1-yl)benzoic acid] | 3.1 µM | > 100 µM | > 100 µM | > 50 µM | 8.8 µM |  |  | 
CC(C)(C)C1=NN(c2ccc(C(=O)O)cc2)C(c2cccc([N+](=O)[O-])c2)C1 (stereo not shown) [Compound 3, 4-(3-tert-Butyl-5-(3-nitrophenyl)-4,5-dihydro-1H-pyrazol-1-yl)benzoic acid] | 3.2 µM | > 100 µM | > 100 µM |  |  | > 50 µM | > 50 µM | 
COc1ccc(C2CC(C(C)(C)C)=NN2c2ccc(C(=O)O)cc2)c(OC)c1 (stereo not shown) [Compound 4, 4-(3-tert-Butyl-5-(2,4-dimethoxyphenyl)-4,5-dihydro-1H-pyrazol-1-yl)benzoic acid] |  | > 100 µM | > 100 µM | > 50 µM | > 50 µM |  |  | 23.5 µM
COc1ccc(C2CC(c3ccccc3OC)=NN2c2ccc(C(=O)O)cc2)cc1 (stereo not shown) [Compound 8, 4-(3-(2-Methoxyphenyl)-5-(4-methoxyphenyl)-4,5-dihydro-1H-pyrazol-1-yl)benzoic acid] | 3.2 µM | > 100 µM | > 100 µM | > 50 µM | > 50 µM |  |  | 
CC(C)(C)C1=NN(c2ccc(C(=O)O)cc2)C(c2ccccc2)C1 (stereo not shown) [Compound 22, 4-(3-tert-Butyl-5-phenyl-4,5-dihydro-1H-pyrazol-1-yl)benzoic acid] | 6.22 µM | > 100 µM | > 100 µM | > 50 µM | > 50 µM |  |  | 
CCOc1ccc(C2CC(C(C)(C)C)=NN2c2ccc(C(=O)O)cc2)cc1 (stereo not shown) [Compound 15, 4-(3-(tert-Butyl)-5-(4-ethoxyphenyl)-4,5-dihydro-1H-pyrazol-1-yl)benzoic acid] | 2.9 µM | > 100 µM | > 100 µM | > 50 µM | 6 µM |  |  | 
CC(C)(C)C1=NN(c2ccc(C(=O)O)cc2)C(c2cccc(F)c2)C1 (stereo not shown) [Compound 19, 4-(3-(tert-Butyl)-5-(3-fluorophenyl)-4,5-dihydro-1H-pyrazol-1-yl)benzoic acid] | 2.7 µM | > 100 µM | > 100 µM | > 50 µM | > 50 µM |  |  | 
CCOc1ccccc1C1CC(C(C)(C)C)=NN1c1ccc(C(=O)O)cc1 (stereo not shown) [Compound 20, 4-(3-(tert-Butyl)-5-(2-ethoxyphenyl)-4,5-dihydro-1H-pyrazol-1-yl)benzoic acid] | 2 µM | > 100 µM | > 100 µM |  |  | > 50 µM | 22 µM | 
CC(C)(C)C1=NN(c2ccc(C(=O)O)cc2)C(c2ccccc2Br)C1 (stereo not shown) [Compound 14, 4-(5-(2-Bromophenyl)-3-(tert-butyl)-4,5-dihydro-1H-pyrazol-1-yl)benzoic acid] | 6.9 µM | > 100 µM | > 100 µM | > 50 µM | 39.6 µM |  |  | 
CC(C)(C)C1=NN(c2cccc(C(=O)O)c2)C(c2ccc(Cl)cc2)C1 (stereo not shown) [Compound 6, 3-(3-tert-Butyl-5-(4-chlorophenyl)-4,5-dihydro-4H-pyrazol-1-yl)benzoic acid] | 9.9 µM | > 100 µM | > 100 µM | > 50 µM | 39.9 µM |  |  | 
COc1ccc(C2CC(c3ccccc3)=NN2c2ccc(C(=O)O)cc2)cc1 (stereo not shown) [Compound 7, 4-(5-(4-Methoxyphenyl)-3-phenyl-4,5-dihydro-1H-pyrazol-1-yl)benzoic acid] | 1.2 µM | > 100 µM | > 100 µM | 48 µM | 36.7 µM |  |  | 
CC(C)(C)C1=NN(c2ccc(C(=O)O)cc2)C(c2ccccc2Cl)C1 (stereo not shown) [Compound 17, 4-(3-(tert-Butyl)-5-(2-chlorophenyl)-4,5-dihydro-1H-pyrazol-1-yl)benzoic acid] | 1.9 µM | > 100 µM | > 100 µM | > 50 µM | 20.8 µM |  |  | 
CC(C)(C)C1=NN(c2ccc(C(=O)O)cc2)C(c2ccccc2F)C1 (stereo not shown) [Compound 18, 4-(3-(tert-Butyl)-5-(2-fluorophenyl)-4,5-dihydro-1H-pyrazol-1-yl)benzoic acid] | 3.3 µM | > 100 µM | > 100 µM | > 50 µM | > 50 µM |  |  | 
CC(C)(C)C1=NN(c2ccc(C(=O)O)cc2)C(c2ccc(O)cc2)C1 (stereo not shown) [Compound 5, 4-(3-tert-Butyl-5-(4-hydroxyphenyl)-4,5-dihydro-1H-pyrazol-1-yl)benzoic acid] | 2.1 µM | > 100 µM | > 100 µM | > 50 µM | > 50 µM |  |  | 
COc1ccc(C2CC(C(C)(C)C)=NN2c2ccc(C(=O)O)cc2)cc1 (stereo not shown) [Compound 1, 4-(3-tert-Butyl-5-(4-methoxyphenyl)-4,5-dihydro-1H-pyrazol-1-yl)benzoic acid] | 2.02 µM | > 100 µM | > 100 µM | > 50 µM | > 50 µM |  |  | 
COc1ccc(C2CC(c3ccccc3)=NN2c2ccc(S(N)(=O)=O)cc2)cc1 (stereo not shown) [Compound 11, 4-(5-(4-Methoxyphenyl)-3-phenyl-4,5-dihydro-1H-pyrazol-1-yl)benzenesulfonamide] | 3.8 µM | > 100 µM | > 100 µM | 27.6 µM | 15.6 µM |  |  | 
CC(C)(C)C1=NN(c2ccc(S(=O)(=O)O)cc2)C(c2ccc(F)cc2)C1 (stereo not shown) [Compound 25, 4-(3-tert-Butyl-5-(4-fluorophenyl)-4,5-dihydro-1H-pyrazol-1-yl)benzenesulfonic acid] | 3.3 µM | > 100 µM | > 100 µM | > 50 µM | > 50 µM |  |  | 
